Assay results as given in patent US20230233592A1, “PHARMACEUTICAL COMPOSITION FOR THE CHEMICAL INHIBITION OF TGS1 IN THE THERAPEUTIC TREATMENT OF TELOMEROPATHIES” (priority 2020, published 2023).
“Also recorded” adds a separate entry of the source. Where two headings read alike, the source gives them in different places.

Experiments:
[1] = target: T1, recombinant TGS1 enzyme fused to protein GST (Homo sapiens, UniProt Q96RS0); assay: In vitro hypermethylation assay with recombinant GST-TGS1 enzyme; format: biochemical; conditions: Sinefungin 100 μM; 50 μM [3H-CH3]AdoMet; 5 mM m7GTP
T1 construct: made in house; host or cells: bacterial cells
T1 sequence (Q96RS0 whole entry, the tested form may be a part): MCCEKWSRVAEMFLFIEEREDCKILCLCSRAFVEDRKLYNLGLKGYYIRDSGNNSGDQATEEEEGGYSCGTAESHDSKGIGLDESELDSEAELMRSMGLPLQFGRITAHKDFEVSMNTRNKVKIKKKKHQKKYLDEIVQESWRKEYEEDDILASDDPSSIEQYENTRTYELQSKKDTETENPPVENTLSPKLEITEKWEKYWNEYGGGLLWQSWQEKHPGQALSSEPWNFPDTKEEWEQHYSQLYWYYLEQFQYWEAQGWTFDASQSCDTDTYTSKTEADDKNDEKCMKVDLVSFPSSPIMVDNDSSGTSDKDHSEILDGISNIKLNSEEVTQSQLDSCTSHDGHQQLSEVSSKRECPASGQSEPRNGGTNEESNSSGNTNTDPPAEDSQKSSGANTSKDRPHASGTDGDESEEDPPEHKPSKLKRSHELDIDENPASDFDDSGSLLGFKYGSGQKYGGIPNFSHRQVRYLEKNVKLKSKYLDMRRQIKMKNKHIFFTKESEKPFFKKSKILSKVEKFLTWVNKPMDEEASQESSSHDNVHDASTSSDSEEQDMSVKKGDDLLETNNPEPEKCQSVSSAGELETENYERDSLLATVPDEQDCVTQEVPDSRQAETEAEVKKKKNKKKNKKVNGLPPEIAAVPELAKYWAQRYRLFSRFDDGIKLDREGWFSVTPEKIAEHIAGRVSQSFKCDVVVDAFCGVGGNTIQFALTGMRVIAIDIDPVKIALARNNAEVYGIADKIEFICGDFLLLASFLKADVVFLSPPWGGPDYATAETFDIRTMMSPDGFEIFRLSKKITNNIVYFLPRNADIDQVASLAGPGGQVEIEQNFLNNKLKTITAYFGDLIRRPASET
Procedure: Sinefungin, analogous of S-adenosyl-methionine, inhibits the reaction of hypermethylation catalyzed by TGS1. (A) In vitro assay of hypermethylation performed by incubating 1 μg of recombinant GST-TGS1 or GST with 50 μM [^3H—CH3]AdoMet (SAM) and with 5 mM m^7GTP (MMG), in presence or not of 100 μM Sinefungin. Aliquots of the reaction mixture are placed on cellulose-polyethyleneimine and the reaction products are resolved by means of TLC. The incorporation of ^3H—CHs in the methylated derivatives of MMg (DMG or TMG) is quantified by means of liquid scintillation counting. (B) Control reactions performed without protein or GST. (C) The entity of transfer of ^3H-methyl to the dinucleotide cap is shown. The Sinefungin capability of inhibiting the methyl-transferase activity of TGS1 enzyme was evaluated by means of recombinant in vitro hypermethylation assay by using recombinant TGS1 enzyme fused to protein GST. After having purified TGS1-GST from bacterial cells, still immobilized on glutathione beads, or GST alone, the assay was performed in presence or absence of Sinefungin, by using [^3H—CH3]AdoMet as methyl donor and m^7GTP (MMG) as substrate.

[2] = tested on: UMUC3 cells; assay: qRT-PCR analysis of hTR levels in UMUC3 cells; format: cell-based, human; conditions: Sinefungin 100 μM for 10 days
Procedure: (A, E) qRT-PCR analysis of levels of hTR on RNA of UMUC3 cells (A) or of the cell line HeLa PARN KO (E), treated or not with 50 μM Sinefungin for 10 days. The bars represent the variation in the levels of hTR in the treated cells and in the not treated cells, obtained by three replicates. The effects of Sinefungin were tested on the tumour cell line of UMUC3 bladder, characterized by limiting levels of hTR for the activity telomerase and by short telomeres (Xu L. & Blackburn E. H. Mol Cell 28, 2007). The UMUC3 cells were treated with Sinefungin 100 μM for 10 days, and then the levels of RNA hTR were determined. […] In order to confirm that Sinefungin is capable of striking specifically the TGS1 enzyme, a treatment with Sinefungin was tested on clones of UMUC3 cells, characterized by CRISPR-induced mutations in TGS1 (Chen et al.) (FIG. 3C), inside thereof there is a lengthening of the telomeres over time due to a deficiency of TGS1 (FIG. 3D). Control cells and mutant cells were cultivated for 46 days in presence or absence of Sinefungin.

[3] = tested on: UMUC3 cells; assay: Telomere Restriction Fragment (TRF) analysis in TGS1-proficient UMUC3 cells; format: cell-based, human; conditions: TGS1-proficient UMUC3 cells cultivated with Sinefungin, over 15 population doublings / 46 days
Procedure: (B,D,F) Determination of the telomeric length by means of Telomere Restriction Fragment analysis (TRF, performed according to the methods described in Roake, C. M. et al. Mol Cell 74, 2019) in two cell types characterized by short telomeres: the UMUC3 tumour cell line and the HeLa cells lacking in TGS1 or deadenylase PARN. […] No lengthening of telomeres in the not-treated parental cells is observed (lanes 9-10). The effects of Sinefungin were tested on the tumour cell line of UMUC3 bladder, characterized by limiting levels of hTR for the activity telomerase and by short telomeres (Xu L. & Blackburn E. H. Mol Cell 28, 2007). The UMUC3 cells were treated with Sinefungin 100 μM for 10 days, and then the levels of RNA hTR were determined. […] In order to confirm that Sinefungin is capable of striking specifically the TGS1 enzyme, a treatment with Sinefungin was tested on clones of UMUC3 cells, characterized by CRISPR-induced mutations in TGS1 (Chen et al.) (FIG. 3C), inside thereof there is a lengthening of the telomeres over time due to a deficiency of TGS1 (FIG. 3D). Control cells and mutant cells were cultivated for 46 days in presence or absence of Sinefungin.

[4] = tested on: HeLa PARN KO cells; assay: qRT-PCR analysis of hTR levels in HeLa PARN KO cells; format: cell-based, human; conditions: 50 μM Sinefungin, 10 days
Procedure: (A, E) qRT-PCR analysis of levels of hTR on RNA of UMUC3 cells (A) or of the cell line HeLa PARN KO (E), treated or not with 50 μM Sinefungin for 10 days. The bars represent the variation in the levels of hTR in the treated cells and in the not treated cells, obtained by three replicates. The effects of Sinefungin were tested on mutant HeLa cells for PARN deadenylase (PARN KO) enzyme, one of the causative factors of congenital dyskeratosis (Tummala et al., 2015) (Roake C. M. et al. Mol cell 74, 2019). PARN KO cells, obtained in the laboratory of […] (Stanford University), are characterized by short telomeres, due to the reduced levels of RNA component of telomerase.

[5] = tested on: HeLa PARN KO cells; assay: Telomere Restriction Fragment (TRF) analysis in HeLa PARN KO cells; format: cell-based, human; conditions: 50 μM Sinefungin, 46 days
Procedure: (B,D,F) Determination of the telomeric length by means of Telomere Restriction Fragment analysis (TRF, performed according to the methods described in Roake, C. M. et al. Mol Cell 74, 2019) in two cell types characterized by short telomeres: the UMUC3 tumour cell line and the HeLa cells lacking in TGS1 or deadenylase PARN. (F) HeLa PARN KO cells were treated or not with 50 μM of Sinefungin for the period of time indicated in culture. Due to the reduced levels of RNA component of telomerase, the average telomeric length is shorter in the PARN KO cells (lane 13) rather than in the parental HeLa cell line. (4.5 kb vs 7.5 kb). […] The effects of Sinefungin were tested on mutant HeLa cells for PARN deadenylase (PARN KO) enzyme, one of the causative factors of congenital dyskeratosis (Tummala et al., 2015) (Roake C. M. et al. Mol cell 74, 2019). PARN KO cells, obtained in the laboratory of […] (Stanford University), are characterized by short telomeres, due to the reduced levels of RNA component of telomerase.

[6] = tested on: fungal cap methyltransferase enzyme; conditions: Chrebet et al. 2005; cited from earlier work
[7] = tested on: Toxoplasma gondii; conditions: mice infected with Toxoplasma gondii; cited from earlier work
[8] = high doses, goats; cited from earlier work
[9] = high doses, dogs; cited from earlier work
[10] = target: T2, SET7/9 lysine methyltransferase (Mus musculus, UniProt Q8VHL1); conditions: murine model for renal fibrosis; cited from earlier work
T2 construct: host or cells: murine model of renal fibrosis
T2 sequence (Q8VHL1 1-366): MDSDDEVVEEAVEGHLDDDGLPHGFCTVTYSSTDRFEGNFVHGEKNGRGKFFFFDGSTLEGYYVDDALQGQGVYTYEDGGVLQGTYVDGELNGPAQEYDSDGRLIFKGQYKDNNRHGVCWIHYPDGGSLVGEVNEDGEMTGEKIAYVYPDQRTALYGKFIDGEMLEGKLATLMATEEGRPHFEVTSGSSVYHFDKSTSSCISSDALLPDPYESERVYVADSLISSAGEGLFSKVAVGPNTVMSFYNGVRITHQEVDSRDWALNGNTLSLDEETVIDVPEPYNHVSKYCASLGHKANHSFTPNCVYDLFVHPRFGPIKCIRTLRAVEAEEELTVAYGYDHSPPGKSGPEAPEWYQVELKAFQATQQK

[11] = target: RNA hypermethylase TGS1 (Homo sapiens, UniProt Q96RS0); conditions: Yedavalli & Jeang 2010; cited from earlier work
RNA hypermethylase TGS1, sequence (Q96RS0 whole entry): as the sequence (Q96RS0 whole entry, the tested form may be a part) above

[12] = tested on: Leishmania; conditions: cited from earlier work

Sinefungin
methyl-transferase activity of TGS1 (3H-methyl transfer to m7GTP, TLC / liquid scintillation) [1]: inhibit the methyl-transferase activity of TGS1
increase in the levels of hTR [2]: 1.5 times
telomere length (TRF) [3]: A lengthening of telomeres takes place in the treated control cells; also recorded: a lengthening of the telomeres was observed
levels of hTR [4]: a significative increase in the levels of hTR
telomere length (TRF) [5]: a lengthening of telomeres; also recorded: a substantial increase in the telomere length
inhibition of fungal cap methyltransferase with respect to the human ortholog [6]: ten times more effectively
survival of infected mice [7]: increased the survival of mice
nephrotoxicity [8]: nephrotoxic effects were detected
nephrotoxicity [9]: nephrotoxic effects were detected
renal fibrosis pathology [10]: an improvement in the pathology
inhibition of TGS1 in human cells [11]: inhibits RNA hypermethylase TGS1
survival of infected mice ([12]; mice infected with various isolates of Leishmania): increased the survival of mice
toxic effects in infected mice ([12]; mouse, in vivo): without showing clinically detectable toxic effects
